PubChem BioAssay AID1918938 (Molecular Pharmacology Branch, DTP, NCI, 2023)
pIC50: −log10 of the molar value.

Tested on: 556581-035-R-J1-PDC complex spheroid viability
Test: Anticancer human tumor 556581-035-R-J1-PDC patient-derived ovarian carcinoma cell line growth inhibition
Details: for pIC50: curve of first compound; for viability, T/C: stronger effect = lower value
Summary of the method: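 Multicellular complex spheroids of tumor cells with human endothelial cells (HUVEC) and mesenchymal stem cells; the LSD1 inhibitor iadademstat was combined with standard-of-care or investigational agents. Top concentration at or near clinical Cmax, half-log dilutions; final DMSO ≤0.25%.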

[1] = second compound 0.1 µM, first compound 0.0316 µM
[2] = second compound 0.1 µM, first compound 0.1 µM
[3] = second compound 0.1 µM, first compound 0.316 µM
[4] = second compound 0.1 µM, first compound 1 µM
[5] = second compound 0.316 µM, first compound 0.0316 µM
[6] = second compound 0.316 µM, first compound 0.1 µM
[7] = second compound 0.316 µM, first compound 0.316 µM
[8] = second compound 0.316 µM, first compound 1 µM
[9] = second compound 1 µM, first compound 0.0316 µM
[10] = second compound 1 µM, first compound 0.1 µM
[11] = second compound 1 µM, first compound 0.316 µM
[12] = second compound 1 µM, first compound 1 µM
[13] = second compound 3.16 µM, first compound 0.0316 µM
[14] = second compound 3.16 µM, first compound 0.1 µM
[15] = second compound 3.16 µM, first compound 0.316 µM
[16] = second compound 3.16 µM, first compound 1 µM
[17] = second compound 10 µM, first compound 0.0316 µM
[18] = second compound 10 µM, first compound 0.1 µM
[19] = second compound 10 µM, first compound 0.316 µM
[20] = second compound 10 µM, first compound 1 µM
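Also: spheroids exposed to agents for seven days.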
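For viability, T/C in this document: 100% = DMSO vehicle control wells.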

Row | SMILES | pIC50 (second compound 0.1 µM) | pIC50 (second compound 0.316 µM) | pIC50 (second compound 1 µM) | pIC50 (second compound 3.16 µM) | pIC50 (second compound 10 µM) | viability, T/C [1] [%] | viability, T/C [2] [%] | viability, T/C [3] [%] | viability, T/C [4] [%] | viability, T/C [5] [%] | viability, T/C [6] [%] | viability, T/C [7] [%] | viability, T/C [8] [%] | viability, T/C [9] [%] | viability, T/C [10] [%] | viability, T/C [11] [%] | viability, T/C [12] [%] | viability, T/C [13] [%] | viability, T/C [14] [%] | viability, T/C [15] [%] | further results
1 | CC1(C)CCC(CN2CCN(c3ccc(C(=O)NS(=O)(=O)c4ccc(NCC5CCOCC5)c([N+](=O)[O-])c4)c(Oc4cnc5[nH]ccc5c4)c3)CC2)=C(c2ccc(Cl)cc2)C1 + NC1CC1c1ccc(-c2cccc(O)c2)cc1 | 5.39 | 5.40 | 5.39 | 5.42 | 5.49 | 89.8 | 85.4 | 73.2 | 76.5 | 83.2 | 82 | 73.2 | 75.4 | 82.6 | 87 | 81.9 | 65.3 | 83.5 | 90.3 | 72.2 | viability, T/C (second compound 0.1 µM, first compound 3.16 µM): 65.5%; viability, T/C (second compound 0.1 µM, first compound 10 µM): 3.69%; viability, T/C (second compound 0.316 µM, first compound 3.16 µM): 61.6%; viability, T/C (second compound 0.316 µM, first compound 10 µM): 4.26%; viability, T/C (second compound 1 µM, first compound 3.16 µM): 67.4%; viability, T/C (second compound 1 µM, first compound 10 µM): 5.26%; viability, T/C [16]: 73.9%; viability, T/C (second compound 3.16 µM, first compound 3.16 µM): 61.3%; viability, T/C (second compound 3.16 µM, first compound 10 µM): 4.73%; viability, T/C [17]: 85.4%; viability, T/C [18]: 81.7%; viability, T/C [19]: 75.6%; viability, T/C [20]: 65.4%; viability, T/C (second compound 10 µM, first compound 3.16 µM): 55.2%; viability, T/C (second compound 10 µM, first compound 10 µM): 3.86%
2 | COc1cc(Nc2ncc3c(n2)-c2ccc(Cl)cc2C(c2c(F)cccc2OC)=NC3)ccc1C(=O)O + NC1CC1c1ccc(-c2cccc(O)c2)cc1 | 7.37 | 7.56 | 7.30 | 6.36 | < 6.00 | 53.3 | 44.6 | 45.7 | 37.3 | 51.2 | 43.1 | 37.4 | 37.8 | 59.7 | 42.9 | 46.4 | 37.9 | 60.4 | 49.7 | 56 | viability, T/C (second compound 0.1 µM, first compound 0.00316 µM): 57.3%; viability, T/C (second compound 0.1 µM, first compound 0.01 µM): 51.5%; viability, T/C (second compound 0.316 µM, first compound 0.00316 µM): 57.6%; viability, T/C (second compound 0.316 µM, first compound 0.01 µM): 56.5%; viability, T/C (second compound 1 µM, first compound 0.00316 µM): 50.5%; viability, T/C (second compound 1 µM, first compound 0.01 µM): 49%; viability, T/C (second compound 3.16 µM, first compound 0.00316 µM): 58.3%; viability, T/C (second compound 3.16 µM, first compound 0.01 µM): 57.4%; viability, T/C [16]: 42.5%; viability, T/C (second compound 10 µM, first compound 0.00316 µM): 73.8%; viability, T/C (second compound 10 µM, first compound 0.01 µM): 60.5%; viability, T/C [17]: 59.7%; viability, T/C [18]: 55.5%; viability, T/C [19]: 52%; viability, T/C [20]: 50.2%
